According to patent US6867192B1, “Compounds useful in the treatment of inflammatory diseases” (priority 1998, dated 2005):
pIC50: −log10 of the molar value. Starred links: 1 amine or outer side, 2 acyl side, 3 side chain; linkers in the order of their positions; H or OH if unused. Residues, ends and D or L forms follow the SMILES beside them. Groups on a side chain read outwards from the residue. *: point of attachment. Morpholide = C1CN(*)CCO1; Cbz = O=C(OCc1ccccc1)*; CO = O=C([*:1])[*:2]

These molecules were tested against T1, integrin VLA-4, expressed on the Jurkat J6 (human lymphoblast cell line) cell membrane with VCAM-1 (Homo sapiens, UniProt P05556+P13612) (assay: Jurkat J6/VCAM-1 adhesion assay). Conditions: Jurkat J6 cell adhesion to VCAM-1, 1 mM MnCl2; mean of n experiments.
T1 construct: integrin VLA-4, expressed on the Jurkat J6 (human lymphoblast cell line) cell membrane; endogenous in cells; host or cells: Jurkat J6 cells (integrin). zzVCAM-1 was made in house in Drosophila melanogaster S2 cells
Type: cell-based
Experimental: (1) Jurkat J6/VCAM-1 Adhesion Assay
This assay was used to investigate the interaction of the integrin VLA-4, expressed on the Jurkat J6 (human lymphoblast cell line) cell membrane with VCAM-1. Polystyrene 96-well microtitre plates were coated with human immunoglobulin G (IgG; Sigma Chemicals, UK, Product No. 14506) at a concentration of 0.05 mg ml^−1 in bicarbonate buffer (36 mM NaHCO3 and 22 mM Na2CO3, prepared in Dulbecco's phosphate buffered saline at pH 9.8 (PBS); Sigma Chemicals, UK, Product No. 14190-094) for 2 hours at 37° C. This solution was then aspirated and the plates were washed twice with PBS.
VCAM-1 was prepared by cloning its constituent seven domains into a Drosophila expression system with a zz (Protein A) tag. This zzVCAM-1 was then expressed from Drosophila melanogaster S2 cell culture, induced with copper. Protease inhibitors were added and the culture supernatant was clarified either by filtration through a 0.2 μm filter or by centrifugation. The zzVCAM-1 was then purified from this clarified medium using an IgG agarose column, equilibrated with either 20 mM sodium phosphate pH 7.2 alone or in the presence of 0.5M sodium chloride. Elution of zzVCAM-1 from the column was mediated using 3M ammonium thiocyanate, which was subsequently removed using a G25 desalting column, equilibrated with 20 mM sodium phosphate, pH 7.2. The purified zzVCAM-1 was then concentrated to a small volume (Amicon stirred cell concentrators) until a concentration of 62.5 ng ml^−1 was obtained, calculated using the extinction coefficient value.
This solution of zzVCAM-1 was then incubated overnight at 4° C. in the IgG coated microtitre plates with 3% bovine serum albumin (BSA) in PBS, followed by aspiration and two further washes with PBS. A concentration of the Jurkat J6 cells (6×10^6 cels ml^−1), grown in cell media RPMI 1640 (HyClone Ltd, Product No. B-9106-L) supplemented with 10% heat inactivated fetal calf serum (FCS; Gibco BRL, Product No. 10099-075) and 2 mM L-glutamine, were labelled with 10 μM of the fluorescent dye, 2′, 7′-bis(2-carboxyethyl)-5-(e6)-carboxyfluorescein acetoxymethyl ester (BCECF-AM; Molecular Probes Inc, Product No. B-1150) at 37° C. for 10 minutes. The excess dye was then removed by centrifugation at 500×g for 5 minutes and the cells were resuspended at a concentration of 1.2×10^7 cells ml^−1 in Hank's balanced salt solution (HBSS; Gibco BRL, Product No. 14190-094).
Equal volumes of compounds (dissolved in an appropriate solvent and diluted in HBSS containing 1 mM MnCl2) and the labelled Jurkat J6 cells, were added to the VCAM-1 coated plates and adhesion was allowed to proceed for 30 minutes at 37° C. Non, or loosely adhered cells, were removed by inversion of the plate and blotted with tissue paper. Two washes with PBS and further blotting were then performed, before the addition of 2% detergent (Triton-X®; Sigma Chemicals UK, Product No. X100). Counting was undertaken in a Wallac Viktor™ Fluorimeter, where low fluorescence values were indicative of compounds which had inhibited adhesion. All samples were assayed in singlicate and the following four parameter curve fit, shown by Equation (I) was applied: [formula]
Where a is the minimum, b is the Hill slope, c is the IC50 and d is the maximum. (Maximum and minimum values are those compared to adhesion in the absence of compound and in the presence of the dipotassium salt of 2 mM EDTA; Sigma Chemicals, UK, Product No. ED2P). Data is presented as the mean pIC50 with the standard error of the mean of n experiments.

T1 sequence (P13612 34-1032): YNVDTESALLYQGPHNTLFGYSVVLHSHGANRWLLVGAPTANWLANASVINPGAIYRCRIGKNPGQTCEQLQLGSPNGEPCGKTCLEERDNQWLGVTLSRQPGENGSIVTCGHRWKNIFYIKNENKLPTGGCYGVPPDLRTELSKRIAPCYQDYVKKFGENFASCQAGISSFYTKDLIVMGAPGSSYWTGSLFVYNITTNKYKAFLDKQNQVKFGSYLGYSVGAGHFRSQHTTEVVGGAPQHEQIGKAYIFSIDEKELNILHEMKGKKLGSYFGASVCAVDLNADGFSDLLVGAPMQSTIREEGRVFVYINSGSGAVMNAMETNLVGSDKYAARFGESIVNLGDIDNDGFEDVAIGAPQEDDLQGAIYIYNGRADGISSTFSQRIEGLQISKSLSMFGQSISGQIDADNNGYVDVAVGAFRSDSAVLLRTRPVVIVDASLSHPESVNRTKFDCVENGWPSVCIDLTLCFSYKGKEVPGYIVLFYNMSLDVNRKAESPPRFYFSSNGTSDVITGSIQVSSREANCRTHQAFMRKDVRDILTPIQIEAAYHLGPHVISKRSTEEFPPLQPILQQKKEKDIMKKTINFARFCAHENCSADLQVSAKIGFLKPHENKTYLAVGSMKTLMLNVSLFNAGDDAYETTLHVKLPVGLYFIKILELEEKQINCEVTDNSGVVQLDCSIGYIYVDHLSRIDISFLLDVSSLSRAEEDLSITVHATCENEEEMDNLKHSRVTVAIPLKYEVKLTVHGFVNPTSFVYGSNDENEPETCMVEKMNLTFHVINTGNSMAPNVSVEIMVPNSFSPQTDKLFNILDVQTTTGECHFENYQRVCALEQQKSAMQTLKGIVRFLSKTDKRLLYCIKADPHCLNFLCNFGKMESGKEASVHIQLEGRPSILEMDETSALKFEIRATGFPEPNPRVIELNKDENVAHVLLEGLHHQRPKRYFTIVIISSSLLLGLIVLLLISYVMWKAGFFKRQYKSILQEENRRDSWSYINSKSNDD
T1 sequence (P05556 21-798): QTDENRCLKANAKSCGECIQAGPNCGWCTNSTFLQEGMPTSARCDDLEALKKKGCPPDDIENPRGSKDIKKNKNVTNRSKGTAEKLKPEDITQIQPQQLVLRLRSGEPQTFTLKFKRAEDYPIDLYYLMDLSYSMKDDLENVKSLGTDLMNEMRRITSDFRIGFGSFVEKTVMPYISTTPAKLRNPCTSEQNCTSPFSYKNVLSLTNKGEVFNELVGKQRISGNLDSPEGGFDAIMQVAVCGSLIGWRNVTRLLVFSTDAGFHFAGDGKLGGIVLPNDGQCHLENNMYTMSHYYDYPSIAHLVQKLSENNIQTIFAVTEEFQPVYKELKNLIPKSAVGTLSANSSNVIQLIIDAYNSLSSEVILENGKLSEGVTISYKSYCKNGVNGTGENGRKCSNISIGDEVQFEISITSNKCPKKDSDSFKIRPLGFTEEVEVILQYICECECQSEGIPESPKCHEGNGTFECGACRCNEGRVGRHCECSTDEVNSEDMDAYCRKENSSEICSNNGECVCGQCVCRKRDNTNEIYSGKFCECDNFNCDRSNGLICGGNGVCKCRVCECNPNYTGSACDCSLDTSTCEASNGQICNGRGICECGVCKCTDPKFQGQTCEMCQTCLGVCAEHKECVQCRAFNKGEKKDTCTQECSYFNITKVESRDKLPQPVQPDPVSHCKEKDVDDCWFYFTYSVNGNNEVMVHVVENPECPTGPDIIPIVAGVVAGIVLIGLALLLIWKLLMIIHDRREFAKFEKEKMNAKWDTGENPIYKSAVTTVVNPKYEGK

pIC50 | SMILES
8.18 | CC(C)C[C@H](NC(=O)COc1ccc(Cl)cc1Cl)C(=O)N[C@@H](Cc1ccc(OC(=O)N2CCOCC2)cc1)C(=O)O [Example 35, (2S)-2-[((2S)-2-{[2-(2,4-Dichlorophenoxy)acetyl]amino}-4-methylpentanoyl)amino]-3-{4-[(4-morpholinylcarbonyl)oxy]phenyl}propanoic acid]
7.91 | CC(C)C[C@H](NC(=O)COc1ccccc1C(=O)c1ccccc1)C(=O)N[C@@H](Cc1ccc(OC(=O)N2CCOCC2)cc1)C(=O)O [Example 36, (2S)-2-[((2S)-2-{[2-(2-Benzoylphenoxy)acetyl]amino}-4-methylpentanoyl)amino]-3-{4-[(4-morpholinylcarbonyl)oxy]phenyl}propanoic acid]
8.24 | CCCc1ccccc1OCC(=O)N[C@@H](CC(C)C)C(=O)N[C@@H](Cc1ccc(OC(=O)N2CCOCC2)cc1)C(=O)O [Example 37, (2S)-2-[((2S)-4-Methyl-2-{[2-(2-propylphenoxy)acetyl]amino}pentanoyl)amino]-3-{4-[(4-morpholinylcarbonyl)oxy]phenyl}propanoic acid]
7.81 | CC(C)C[C@H](NC(=O)COc1ccc2ccccc2c1Br)C(=O)N[C@@H](Cc1ccc(OC(=O)N2CCOCC2)cc1)C(=O)O [Example 38, (2S)-2-{[(2S)-2-({2-[(1-Bromo-2-naphthyl)oxy]acetyl}amino)-4-methylpentanoyl]amino}-3-{4-[(4-morpholinylcarbonyl)oxy]phenyl}propanoic acid]
7.65 | CC(C)C[C@H](NC(=O)COc1ccccc1C1CCCCC1)C(=O)N[C@@H](Cc1ccc(OC(=O)N2CCOCC2)cc1)C(=O)O [Example 39, (2S)-2-[((2S)-2-{[2-(2-Cyclohexylphenoxy)acetyl]amino}-4-methylpentanoyl)amino]-3-{4-[(4-morpholinylcarbonyl)oxy]phenyl}propanoic acid]
8.04 | CC(C)C[C@H](NC(=O)OCc1ccccc1)C(=O)N[C@@H](Cc1ccc(OC(=O)N2CCOCC2)cc1)C(=O)O [Example 40, (2S)-2-[((2S)-2-{[(Benzyloxy)carbonyl]amino}-4-methylpentanoyl)amino]-3-{4-[(4-morpholinylcarbonyl)oxy]phenyl}propanoic acid] (Cbz-Leu-Tyr([CO-Morpholide])-OH)
8.03 | CC(C)C[C@H](NC(=O)COc1ccccc1I)C(=O)N[C@@H](Cc1ccc(OC(=O)N2CCN(C(=O)c3ccco3)CC2)cc1)C(=O)O [Example 41, (2S)-3-[4-({[4-(2-Furoyl)-1-piperazinyl]carbonyl}oxy)phenyl]-2-[((2S)-2-{[2-(2-iodophenoxy)acetyl]amino}-4-methylpentanoyl)amino]propanoic acid]
7.96 | CC(C)C[C@H](NC(=O)COc1ccccc1C(C)(C)C)C(=O)N[C@@H](Cc1ccc(OC(=O)N2CCN(C(=O)c3ccco3)CC2)cc1)C(=O)O [Example 42, (2S)-2-{[(2S)-2-({2-[2-(Tert-butyl)phenoxy]acetyl}amino)-4-methylpentanoyl]amino}-3-[4-({[4-(2-furoyl)-1-piperazinyl]carbonyl}oxy)phenyl]propanoic acid]
7.65 | CC(C)C[C@H](NC(=O)COc1ccccc1C1CCCCC1)C(=O)N[C@@H](Cc1ccc(OC(=O)N2CCN(C(=O)c3ccco3)CC2)cc1)C(=O)O [Example 43, (2S)-2-[((2S)-2-{[2-(2-Cycohexylphenoxy)acetyl]amino}-4-methylpentanoyl)amino]-3-[4-({[4-(2-furoyl)-1-piperazinyl]carbonyl}oxy)phenyl]propanoic acid]
7.62 | CC(C)C[C@H](NC(=O)COc1ccc2ccccc2c1Br)C(=O)N[C@@H](Cc1ccc(OC(=O)N2CCN(C(=O)c3ccco3)CC2)cc1)C(=O)O [Example 44, (2S)-2-{[(2S)-2-({2-[(1-Bromo-2-naphthyl)oxy]acetyl}amino)-4-methylpentanoyl]amino}-3-[4-({[4-(2-furoyl)-1-piperazinyl]carbonyl}oxy)phenyl]propanoic acid]

Continued, molecule first:

SMILES | pIC50
Cc1ccccc1OCC(=O)N[C@@H](CC(C)C)C(=O)N[C@@H](Cc1ccc(OC(=O)N2CCOCC2)cc1)C(=O)O [Example 25, (2S)-2-[((2S)-4-Methyl-2-{[2-(2-methylphenoxy)acetyl]amino}pentanoyl)amino]-3-{4-[(4-morpholinylcarbonyl)oxy]phenyl}propanoic acid] | 8.50
CC(C)C[C@H](NC(=O)COc1ccccc1I)C(=O)N[C@@H](Cc1ccc(OC(=O)N2CCC(C(N)=O)CC2)cc1)C(=O)O [Example 26, (2S)-3-[4-({[4-(Aminocarbonyl)-1-piperidinyl]carbonyl}oxy)phenyl]-2-[((2S)-2-{[2-(2-iodophenoxy)acetyl]amino}-4-methylpentanoyl)amino]propanoic acid] | 8.53
CC(C)C[C@H](NC(=O)COc1ccccc1C(C)(C)C)C(=O)N[C@@H](Cc1ccc(OC(=O)N2CCC(C(=O)N3CCCCC3)CC2)cc1)C(=O)O [Example 29, (2S)-2-{[(2S)-2-({2-[2-(Tert-butyl)phenoxy]acetyl}amino)-4-methylpentanoyl]amino}-3-[4-({[4-(1-piperidinylcarbonyl)-1-piperidinyl]carbonyl}oxy)phenyl]propanoic acid] | 7.79
Cc1ccccc1OCC(=O)N[C@@H](CC(C)C)C(=O)N[C@@H](Cc1ccc(OC(=O)N2CCC(C(=O)N3CCCCC3)CC2)cc1)C(=O)O [Example 30, (2S)-2-[((2S)-4-Methyl-2-{[2-(2-methylphenoxy)acetyl]amino}pentanoyl)amino]-3-[4-({[4-(1-piperidinylcarbonyl)-1-piperidinyl]carbonyl}oxy)phenyl]propanoic acid] | 8.24
CC(C)C[C@H](NC(=O)c1cccc2c1oc1ccccc12)C(=O)N[C@@H](Cc1ccc(OC(=O)N2CCC(C(=O)N3CCCCC3)CC2)cc1)C(=O)O [Example 31, (2S)-2-({(2S)-2-[(Dibenzo[b,d]furan-4-ylcarbonyl)amino]-4-methylpentanoyl}amino)-3-[4-({[4-(1-piperidinylcarbonyl)-1-piperidinyl]carbonyl}oxy)phenyl]propanoic acid] | 7.59
CC(C)C[C@H](NC(=O)COc1ccc2ccccc2c1Br)C(=O)N[C@@H](Cc1ccc(OC(=O)N2CCC(C(=O)N3CCCCC3)CC2)cc1)C(=O)O [Example 32, (2S)-2-{[(2S)-2-({2-[(1-Bromo-2-naphthyl)oxy]acetyl}amino)-4-methylpentanoyl]amino}-3-[4-({[4-(1-piperidinylcarbonyl)-1-piperidinyl]carbonyl}oxy)phenyl]propanoic acid] | 7.62
CC(C)C[C@H](NC(=O)COc1ccccc1C(C)(C)C)C(=O)N[C@@H](Cc1ccc(OC(=O)N2CCC(C(N)=O)CC2)cc1)C(=O)O [Example 33, (2S)-3-[4-({[4-(Aminocarbonyl)-1-piperidinyl]carbonyl}oxy)phenyl]-2-{[(2S)-2-({2-[2-(tert-butyl)phenoxy]acetyl}amino)-4-methylpentanoyl]amino}propanoic acid] | 8.46
CC(C)C[C@H](NC(=O)COc1ccccc1C(C)(C)C)C(=O)N[C@@H](Cc1ccc(OC(=O)N2CCC(C(=O)NCc3ccc(F)cc3)CC2)cc1)C(=O)O [Example 34, (2S)-2-{[(2S)-2-({2-[2-(Tert-butyl)phenoxy]acetyl}amino)-4-methylpentanoyl]amino}-3-(4-{[(4-{[(4-fluorobenzyl)amino]carbonyl}-1-piperidinyl)carbonyl]oxy}phenyl)propanoic acid] | 7.57
